According to patent US20250136568A1, “FUSED HETEROCYCLIC COMPOUNDS AS PI3KALPHA INHIBITORS” (Nanjing Zenshine Pharmaceuticals Co., Ltd., priority 2021, published 2025):
Read-outs that look alike come from different tables or passages of the source.

Key:
[1] = test system: PI3Kα wide type cell line SK-BR-3; assay: Cell Proliferation IC50 Assay (CellTiter-Glo), SK-BR-3; assay type: cell-based; details: Homo sapiens, read-out: IC50 (μM) SK-BR-3
Text: (§1) PI3Kα H1047R mutation cell line T-47D and MDA-MB-453, E545K mutation cell line MDA-MB-361 and PI3Kα wide type cell line SK-BR-3 were purchased from Cobioer Biotech (cat. no CBP60397, CBP60386, CBP60383 and CBP60413 respectively). The CellTiter-Glo Direct Cell Proliferation Assay Kit was purchased from Prornega (cat. No. G7573)
(§2) For cell proliferation assay in each cell line: • a. Prepare complete medium (R PMI 1640, DMEM or McCoys): Add FBS and appropriate additives according to the information sheet provided by the vendor. Mix gently. • b. Prepare single cell suspension and count the cell numbers and adjust cells to appropriate density. • c. Add 80 μL of cell suspension to 96-well opaque-walled clear bottom plates according to the planned plate layout and place the plates in the CO2 incubator overnight. • d. Prepare intermediate plate: 10 μl of diluted test compounds or staurosporine solution (200×) is added to a 96 deep well plate. Then 390 μl of culture medium without FBS is added to the respective wells. • e. Transfer 20 μL of the solutions from the above intermediate plate to the wells of the plate prepared containing 80 μL of the culture medium and cells. The total dilution is 200 folds. • f. The cells were then incubated at 5% CO2, 37° C. for 72 hours. • g. Equilibrate the plate and its contents to room temperature for approximately 30 minutes. • h. Add 100 μL of CellTiter-Glo reagent to the assay plate • i. Mix contents for 10 minutes on an orbital shaker to induce cell lysis. • j. Allow the plate to incubate at room temperature for 10 minutes to stabilize luminescent signal, • k. Paste the clear bottom with white back seal and record luminescence with Varioskan LUX plate reader.
(§3) Inhibition % and IC50 value were calculated by the formula described below: […]

[2] = test system: PI3Kα H1047R mutation cell line T-47D; assay: Cell Proliferation IC50 Assay (CellTiter-Glo), T-47D; assay type: cell-based; details: Homo sapiens, read-out: IC50 (μM) T47D
Text: as §1, §2, §3

[3] = SK-BR-3 (PI3Kα wild type), 72 hours, CellTiter-Glo
[4] = T47D, 72 h, T47D (H1047R), 72 hours, CellTiter-Glo
[5] = T47D (H1047R), 72 hours, CellTiter-Glo

## Cc1cc(C(C)Nc2ccccc2C(=O)O)c2oc(-c3cnc(N4CCOCC4)nc3)cc(=O)c2c1 (stereo not shown) [Example 152, 2-((1-(6-methyl-2-(2-morpholinopyrimidin-5-yl)-4-oxo-4H-chromen-8-yl)ethyl)amino)benzoic acid]
[1]; [3]
  IC50: > 10 µM
[2]; [4]
  IC50: 6.9 µM

## COC(=O)c1ccccc1N[C@H](C)c1cc(C)cc2c(=O)c(C)c(-c3ccc(-c4cnn(C)c4)nc3)oc12 [Example 190, methyl (R)-2-((1-(3,6-dimethyl-2-(6-(1-methyl-1H-pyrazol-4-yl)pyridin-3-yl)-4-oxo-4H-chromen-8-yl)ethyl)amino)benzoate]
[1]; [3]
  IC50: 6.05 µM
[2]; [4]
  IC50: 0.27 µM

## Cc1cc(C(C)Nc2ccccc2C(=O)O)c2oc(-c3cnn(C4COC4)c3)cc(=O)c2c1 (stereo not shown) [Example 40, 2-((1-(6-methyl-2-(1-(oxetan-3-yl)-1H-pyrazol-4-yl)-4-oxo-4H-chromen-8-yl)ethyl)amino)benzoic acid]
[1]; [3]
  IC50: > 10 µM
[2]; [4]
  IC50: 2.51 µM

## Cc1cc([C@@H](C)Nc2ccccc2C(=O)O)c2oc(-c3ccc(C4CN(C)CCO4)cc3)c(C)c(=O)c2c1 (stereo partly drawn) [Example 167, 2-(((1R)-1-(3,6-dimethyl-2-(4-(4-methylmorpholin-2-yl)phenyl)-4-oxo-4H-chromen-8-yl)ethyl)amino)benzoic acid]
[1]; [3]
  IC50: 8.34 µM
[2]; [5]
  IC50: 0.092 µM

## Cc1cc(C(C)Nc2ccccc2P(=O)(O)O)c2oc(-c3ccc4nn(C)cc4c3)c(C)c(=O)c2c1 (stereo not shown) [Example 176]
[1]; SK-BR-3, 72 h
  IC50: > 10 µM
[2]; T47D, 72 h
  IC50: > 10 µM

## Cc1cc(C(C)Nc2ccccc2C(=O)O)c2oc(-c3ccccn3)cc(=O)c2c1 (stereo not shown) [Example 31, 2-((1-(6-methyl-4-oxo-2-(pyridin-2-yl)-4H-chromen-8-yl)ethyl)amino)benzoic acid]
[1]; [3]
  IC50: > 10 µM
[2]; [4]
  IC50: 0.9 µM

## Cc1cc(C(C)Nc2ccccc2C(=O)NO)c2oc(-c3ccc4nn(C)cc4c3)c(C)c(=O)c2c1 (stereo not shown) [Example 156, 2-((1-(3,6-dimethyl-2-(2-methyl-2H-indazol-5-yl)-4-oxo-41H-chromen-8-yl)ethyl)amino)-N-hydroxybenzamide]
[1]; [3]
  IC50: > 10 µM
[2]; [4]
  IC50: 0.13 µM

## Cc1cc(C(C)Nc2ccccc2C(=O)O)c2oc(-c3ccc4cnccc4c3)cc(=O)c2c1 (stereo not shown) [Example 36, 2-((1-(2-(isoquinolin-6-yl)-6-methyl-4-oxo-4H-chromen-8-yl)ethyl)amino)benzoic acid]
[1]; [3]
  IC50: > 10 µM
[2]; [4]
  IC50: 0.2 µM

## Cc1cc([C@@H](C)Nc2ccccc2C(=O)O)c2oc(-c3ccc(N4CCC[C@H](N(C)C)C4)cc3)c(C)c(=O)c2c1 [Example 168, 2-(((R)-1-(2-(4-((S)-3-(dimethylamino)piperidin-1-yl)phenyl)-3,6-dimethyl-4-oxo-41H-chromen-8-yl)ethyl)amino)benzoic acid]
[1]; [3]
  IC50: > 10 µM
[2]; [4]
  IC50: 0.092 µM

## Cc1cc(C(C)Nc2ccccc2C(=O)O)c2oc(C3=CCN(C(C)C(F)(F)F)CC3)cc(=O)c2c1 (stereo not shown) [Example 17, 2-((1-(6-methyl-4-oxo-2-(1-(1,1,1-trifluoropropan-2-yl)-1,2,3,6-tetrahydropyridin-4-yl)-4H-chromen-8-yl)ethyl)amino)benzoic acid]
[1]; [3]
  IC50: > 10 µM
[2]; [4]
  IC50: 2.07 µM

## CC(=O)N1CCN(c2ccc(-c3oc4c([C@@H](C)Nc5ccccc5C(=O)O)cc(C)cc4c(=O)c3C)cn2)CC1 [Example 153, (R)-2-((1-(2-(6-(4-acetylpiperazin-1-yl)pyridin-3-yl)-3,6-dimethyl-4-oxo-4H-chromen-8-yl)ethyl)amino)benzoic acid]
[1]; [3]
  IC50: > 10 µM
[2]; [4]
  IC50: 0.29 µM

## Cc1cc([C@H](C)Nc2ccccc2C(=O)O)c2oc(-c3ccc4nn(C)cc4c3)c(C)c(=O)c2c1 (single isomer, unassigned) [Example 49B]
[1]; [3]
  IC50: > 10 µM
[2]; [4]
  IC50: 7.24 µM

## Cc1cc(C(C)Nc2ccccc2C(=O)O)c2oc(-c3cc4n(c3)CCN(C)C4=O)c(C)c(=O)c2c1 (stereo not shown) [Example 72, 2-((1-(3,6-dimethyl-2-(2-methyl-1-oxo-1,2,3,4-tetrahydropyrrolo[1,2-a]pyrazin-7-yl)-4-oxo-4H-chromen-8-yl)ethyl)amino)benzoic acid]
[1]; [3]
  IC50: > 10 µM
[2]; [4]
  IC50: 5.08 µM

## Cc1cc([C@@H](C)Nc2ccccc2C(=O)O)c2oc(-c3ccc(CN4CCCC4=O)cc3)c(C)c(=O)c2c1 [Example 135, (R)-2-((1-(3,6-dimethyl-4-oxo-2-(4-((2-oxopyrrolidin-1-yl)methyl)phenyl)-4H-chromen-8-yl)ethyl)amino)benzoic acid]
[1]; [3]
  IC50: > 10 µM
[2]; [4]
  IC50: 0.18 µM

## Cc1cc(C(C)Nc2ccccc2C(=O)O)c2oc(-c3cc4cn(C)nc4cn3)cc(=O)c2c1 (stereo not shown) [Example 83, 2-((1-(6-methyl-2-(2-methyl-2H-pyrazolo[3,4-c]pyridin-5-yl)-4-oxo-41H-chromen-8-yl)ethyl)amino)benzoic acid]
[1]; [3]
  IC50: > 10 µM
[2]; [5]
  IC50: 0.38 µM

## Cc1cc(C(C)Nc2ccccc2C(=O)O)c2oc(-c3ccc4c(c3)CN(C)C4)cc(=O)c2c1 (stereo not shown) [Example 94, 2-((1-(6-methyl-2-(2-methylisoindolin-5-yl)-4-oxo-4-chromen-8-yl)ethyl)amino)benzoic acid]
[1]; [3]
  IC50: > 10 µM
[2]; [4]
  IC50: 1.02 µM

## Cc1cc([C@@H](C)Nc2ccc(Cl)nc2C(=O)O)c2oc(-c3ccc(-c4cnn(C)c4)nc3)c(C)c(=O)c2c1 [Example 186, (R)-6-chloro-3-((1-(3,6-dimethyl-2-(6-(1-methyl-1H-pyrazol-4-yl)pyridin-3-yl)-4-oxo-4H-chromen-8-yl)ethyl)amino)picolinic acid]
[1]; [3]
  IC50: 8.68 µM
[2]; [4]
  IC50: 0.16 µM

## Cc1cc([C@@H](C)Nc2ccccc2C(=O)O)c2oc(-c3ccc(CCN4CCOCC4)cc3)c(C)c(=O)c2c1 [Example 142, (R)-2-((1-(3,6-dimethyl-2-(4-(2-morpholinoethyl)phenyl)-4-oxo-4H-chromen-8-yl)ethyl)amino)benzoic acid]
[1]; [3]
  IC50: > 10 µM
[2]; [4]
  IC50: 0.043 µM

## Cc1cc(C(C)Nc2ccccc2C(=O)O)c2oc(-c3cnc4nn(C)cc4c3)cc(=O)c2c1 (stereo not shown) [Example 82, 2-((1-(6-methyl-2-(2-methyl-2H-pyrazolo[3,4-b]pyridin-5-yl)-4-oxo-41H-chromen-8-yl)ethyl)amino)benzoic acid]
[1]; [3]
  IC50: > 10 µM
[2]; [4]
  IC50: > 10 µM

## Cc1cc(C(C)Nc2ccccc2C(=O)O)c2oc(-c3cc4n(n3)CCN(C)C4=O)c(C)c(=O)c2c1 (stereo not shown) [Example 73, 2-((1-(3,6-dimethyl-2-(5-methyl-4-oxo-4,5,6,7-tetrahydropyrazolo[1,5-a]pyrazin-2-yl)-4-oxo-4H-chromen-8-yl)ethyl)amino)benzoic acid]
[1]; [3]
  IC50: > 10 µM
[2]; [4]
  IC50: 2.01 µM

## Cc1cc(C(C)Nc2ccccc2C(=O)O)c2oc(-c3ccc4c(=O)n(C)cnc4c3)cc(=O)c2c1 (stereo not shown) [Example 121, 2-((1-(6-methyl-2-(3-methyl-4-oxo-3,4-dihydroquinazolin-7-yl)-4-oxo-4H-chromen-8-yl)ethyl)amino)benzoic acid]
[1]; [3]
  IC50: > 10 µM
[2]; [4]
  IC50: 0.76 µM

## Cc1cc([C@@H](C)Nc2ccccc2C(=O)O)c2oc(-c3ccc(OC4CN(C)C4)cc3)c(C)c(=O)c2c1 [Example 171, (R)-2-((1-(3,6-dimethyl-2-(4-((1-methylazetidin-3-yl)oxy)phenyl)-4-oxo-4H-chromen-8-yl)ethyl)amino)benzoic acid]
[1]; [3]
  IC50: > 10 µM
[2]; [4]
  IC50: 0.072 µM

## Cc1cc([C@@H](C)Nc2ccccc2C(=O)O)c2oc(-c3ccc(OCC4CCCN4C)cc3)c(C)c(=O)c2c1 (single isomer, unassigned) [Example 172A]
[1]; [3]
  IC50: > 10 µM
[2]; [4]
  IC50: 0.065 µM

## Cc1cc(C(C)Nc2ccccc2C(=O)O)c2nc(-c3ccc4nn(C)cc4c3)cc(=O)n2c1 (stereo not shown) [Example 108, 2-((1-(7-methyl-2-(2-methyl-2H-indazol-5-yl)-4-oxo-4H-pyrido[1,2-a]pyrimidin-9-yl)ethyl)amino)benzoic acid]
[1]; [3]
  IC50: > 10 µM
[2]; [4]
  IC50: 0.84 µM

## Cc1cc([C@@H](C)Nc2ccccc2C(=O)O)c2oc(-c3ccc(Cn4cncn4)cc3)c(C)c(=O)c2c1 [Example 136, (R)-2-((1-(2-(4-((1H-1,2,4-triazol-1-yl)methyl)phenyl)-3,6-dimethyl-4-oxo-4H-chromen-8-yl)ethyl)amino)benzoic acid]
[1]; [3]
  IC50: > 10 µM
[2]; [4]
  IC50: > 10 µM

## Cc1cc([C@@H](C)Nc2ccccc2C(=O)O)c2oc(-c3ccc(OCCN(C)C)nc3)c(C)c(=O)c2c1 [Example 192, (R)-2-((1-(2-(6-(2-(dimethylamino)ethoxy)pyridin-3-yl)-3,6-dimethyl-4-oxo-4H-chromen-8-yl)ethyl)amino)benzoic acid]
[1]; [3]
  IC50: > 10 µM
[2]; [4]
  IC50: 0.1 µM
